{
  "source": "ChEMBL document CHEMBL3992485",
  "about": "(Medchemcomm, 2016)",
  "key": {"[1]": {"system": "HepG2", "test": "Antiproliferative activity against human HepG2 cells measured after 24 hrs by MTT assay", "format": "functional, cell-based", "conditions": "HepG2, 24 h"}, "[2]": {"test": "Antiproliferative activity against human 293T cells measured after 24 hrs by MTT assay", "format": "cell-based", "conditions": "293T (HEK-293T) cells"}, "[3]": {"test": "Inhibition of tubulin polymerization in bovine brain assessed as reduction in tubulin assembly after 20 mins by spectrophotometric method", "design": "species or system Bos taurus"}, "[4]": {"system": "HeLa", "test": "Cell cycle arrest in human HeLa cells assessed as accumulation at G2/M phase after 24 hrs by propidium iodide staining based flow cytometry", "format": "functional"}, "[5]": {"system": "HeLa", "test": "Cell cycle arrest in human HeLa cells assessed as accumulation at G2/M phase at 0.5 uM by propidium iodide staining based flow cytometry", "format": "functional", "conditions": "TDE = time-dependent effect"}, "[6]": {"system": "HeLa", "test": "Cell cycle arrest in human HeLa cells assessed as accumulation at S phase at 0.1 uM after 24 hrs by propidium iodide staining based flow cytometry (reference value: 49.41%)", "format": "functional"}, "[7]": {"system": "HeLa", "test": "Cell cycle arrest in human HeLa cells assessed as accumulation at G2/M phase at 0.2 uM after 12 hrs by propidium iodide staining based flow cytometry (reference value: 2.15%)", "format": "functional"}, "[8]": {"system": "HeLa", "test": "Cell cycle arrest in human HeLa cells assessed as accumulation at G1 phase at 0.4 uM after 12 hrs by propidium iodide staining based flow cytometry (reference value: 85.81%)", "format": "functional"}, "[9]": {"system": "HeLa", "test": "Cell cycle arrest in human HeLa cells assessed as accumulation at G2/M phase at 0.4 uM after 12 hrs by propidium iodide staining based flow cytometry (reference value: 2.15%)", "format": "functional"}, "[10]": {"system": "HeLa", "test": "Cell cycle arrest in human HeLa cells assessed as accumulation at G1 phase at 0.8 uM after 12 hrs by propidium iodide staining based flow cytometry (reference value: 85.81%)", "format": "functional"}, "[11]": {"system": "HeLa", "test": "Cell cycle arrest in human HeLa cells assessed as accumulation at G2/M phase at 0.8 uM after 12 hrs by propidium iodide staining based flow cytometry (reference value: 2.15%)", "format": "functional"}, "[12]": {"system": "HeLa", "test": "Cell cycle arrest in human HeLa cells assessed as accumulation at G1 phase at 0.5 uM after 12 hrs by propidium iodide staining based flow cytometry (reference value: 79.19%)", "format": "functional"}, "[13]": {"system": "HeLa", "test": "Cell cycle arrest in human HeLa cells assessed as accumulation at S phase at 0.5 uM after 12 hrs by propidium iodide staining based flow cytometry (reference value: 33.78%)", "format": "functional"}, "[14]": {"system": "HeLa", "test": "Cell cycle arrest in human HeLa cells assessed as accumulation at S phase at 0.5 uM after 24 hrs by propidium iodide staining based flow cytometry (reference value: 33.78%)", "format": "functional"}, "[15]": {"system": "HeLa", "test": "Cell cycle arrest in human HeLa cells assessed as accumulation at S phase at 0.5 uM after 36 hrs by propidium iodide staining based flow cytometry (reference value: 33.78%)", "format": "functional"}, "[16]": {"system": "HeLa", "test": "Induction of apoptosis in human HeLa cells after 24 hrs by Annexin-V-FITC/propidium iodide staining based flow cytometry", "format": "functional, cell-based"}, "[17]": {"system": "HeLa", "test": "Induction of apoptosis in human HeLa cells assessed as early apoptotic cells at 0.2 uM after 24 hrs by Annexin-V-FITC/propidium iodide staining based flow cytometry (reference value: 2.41%)", "format": "functional"}, "[18]": {"system": "HeLa", "test": "Induction of apoptosis in human HeLa cells assessed as viable cells at 0.4 uM after 24 hrs by Annexin-V-FITC/propidium iodide staining based flow cytometry (reference value: 94.4%)", "format": "functional", "conditions": "read-out: Activity"}, "[19]": {"system": "HeLa", "test": "Induction of apoptosis in human HeLa cells assessed as late apoptotic cells at 0.4 uM after 24 hrs by Annexin-V-FITC/propidium iodide staining based flow cytometry (reference value: 3.1%)", "format": "functional"}, "[20]": {"system": "HeLa", "test": "Induction of apoptosis in human HeLa cells assessed as necrotic cells at 0.4 uM after 24 hrs by Annexin-V-FITC/propidium iodide staining based flow cytometry (reference value: 0.084%)", "format": "functional"}, "[21]": {"system": "HeLa", "test": "Induction of apoptosis in human HeLa cells assessed as late apoptotic cells at 0.8 uM after 24 hrs by Annexin-V-FITC/propidium iodide staining based flow cytometry (reference value: 3.1%)", "format": "functional"}, "[22]": {"system": "HeLa", "test": "Induction of apoptosis in human HeLa cells assessed as viable cells at 0.5 uM after 24 hrs by Annexin-V-FITC/propidium iodide staining based flow cytometry (reference value: 91%)", "format": "functional", "conditions": "read-out: Activity"}, "[23]": {"system": "HeLa", "test": "Induction of apoptosis in human HeLa cells assessed as necrotic cells at 0.5 uM after 24 hrs by Annexin-V-FITC/propidium iodide staining based flow cytometry (reference value: 0.35%)", "format": "functional"}, "[24]": {"system": "HeLa", "test": "Induction of apoptosis in human HeLa cells assessed as late apoptotic cells at 0.5 uM after 36 hrs by Annexin-V-FITC/propidium iodide staining based flow cytometry (reference value: 2.64%)", "format": "functional"}, "[25]": {"system": "HeLa", "test": "Induction of apoptosis in human HeLa cells assessed as necrotic cells at 0.5 uM after 36 hrs by Annexin-V-FITC/propidium iodide staining based flow cytometry (reference value: 0.35%)", "format": "functional"}, "[26]": {"system": "HeLa", "test": "Inhibition of microtubule polymerization in human HeLa cells at 0.2 uM after 24 hrs by DAPI staining based confocal microscopic analysis", "format": "cell-based"}, "[27]": {"system": "HeLa", "test": "Inhibition of microtubule polymerization in human HeLa cells assessed as appearance of short and curled microtubule fragments at 0.4 uM after 24 hrs by DAPI staining based confocal microscopic analysis", "format": "cell-based"}},
  "note": "The source made the active and inactive calls. The calls are words filed in the database; no cut-off is given here.",
  "data": [
    {"compound": "CCn1cc(C(=O)N2CCN(S(=O)(=O)c3c(C(C)C)cc(C(C)C)cc3C(C)C)CC2)c2ccccc21", "values": [
      {"measurement": "IC50", "setting": "[1]", "value": 0.49, "unit": "µM"},
      {"measurement": "CC50 at 24 h", "setting": "[2]", "value": 424, "unit": "µM"},
      {"measurement": "IC50", "setting": "[3]", "value": 1.82, "unit": "µM"},
      {"measurement": "Activity", "setting": "[4]", "value": "Dose-dependent effect"},
      {"measurement": "Activity", "setting": "[5]", "value": "Tde"},
      {"measurement": "Activity", "setting": "[6]", "value": 49.47, "unit": "%"},
      {"measurement": "Activity", "setting": "[7]", "value": 20.46, "unit": "%"},
      {"measurement": "Activity", "setting": "[8]", "value": 22.09, "unit": "%"},
      {"measurement": "Activity", "setting": "[9]", "value": 51.71, "unit": "%"},
      {"measurement": "Activity", "setting": "[10]", "value": 10.02, "unit": "%"},
      {"measurement": "Activity", "setting": "[11]", "value": 83.61, "unit": "%"},
      {"measurement": "Activity", "setting": "[12]", "value": 42.86, "unit": "%"},
      {"measurement": "Activity", "setting": "[13]", "value": 51.97, "unit": "%"},
      {"measurement": "Activity", "setting": "[14]", "value": 55.73, "unit": "%"},
      {"measurement": "Activity", "setting": "[15]", "value": 53.25, "unit": "%"},
      {"measurement": "Activity", "setting": "[16]", "value": "Dose-dependent effect"},
      {"measurement": "Activity", "setting": "[17]", "value": 21.7, "unit": "%"},
      {"measurement": "viability at 0.4 µM", "setting": "[18]", "value": 63.6, "unit": "%"},
      {"measurement": "Activity", "setting": "[19]", "value": 12.8, "unit": "%"},
      {"measurement": "Activity", "setting": "[20]", "value": 0.581, "unit": "%"},
      {"measurement": "Activity", "setting": "[21]", "value": 22.4, "unit": "%"},
      {"measurement": "viability at 0.5 µM", "setting": "[22]", "value": 72.7, "unit": "%"},
      {"measurement": "Activity", "setting": "[23]", "value": 0.303, "unit": "%"},
      {"measurement": "Activity", "setting": "[24]", "value": 21.2, "unit": "%"},
      {"measurement": "Activity", "setting": "[25]", "value": 0.329, "unit": "%"},
      {"measurement": "inhibition", "setting": "[26]", "value": "Active"},
      {"measurement": "inhibition", "setting": "[27]", "value": "Active"}
    ]}
  ]
}
